Laboratory results: patent publication US20240279171A1, “METHODS FOR PREPARING CRYSTALLINE FORMS OF AMISULPRIDE” (SUNOVION PHARMACEUTICALS INC., priority 2021, published 2024)
Where two headings read alike, the source gives them in different places. One block for each compound: values may come before it.

Columns and labels:
[1] = Particle size distribution (Malvern Mastersizer), Example 16; assay type: physicochemical; conditions: for D10 (μm) / D50 (μm) / D90 (μm): crystalline amisulpride used in the tablet formulations, Mastersizer 2000; for PSD D10 (μm) / PSD D50 (μm) / PSD D90 (μm): cooling method Y (Example 4) vs cooling method X (Example 14)
Source text: The particle size distribution (PSD) of crystalline products prepared by the foregoing examples were examined. FIG. 10 presents a plot of the cooling profile comparison between the cooling profile X, using the recrystallization procedure of, e.g., Example 14, with cooling profile Y, using the recrystallization procedure of, e.g., Example 4 (Step 2). Recrystallization using the cooling methods of Example 14 (cooling method X) provided Form A′ having a smaller particle size distribution (e.g., D50 and D90 values) than Form A′ prepared by the methods of Example 4 (cooling method Y), as shown in the table below.
PSD data was obtained using a Malvern Instruments Mastersizer particle size analyzer instrument.
The PSD of the crystalline amisulpride used in the various formulations are provided below. Amisulpride corresponding to “small PSD” can be prepared using the recrystallization and cooling methods of, e.g., Examples 14 and 15 (i.e., cooling profile X of FIG. 10). Amisulpride corresponding to “large PSD” can be prepared using the recrystallization methods of Examples 1 and 3 (i.e., cooling profile Y of FIG. 10). The PSDs were measured using a Mastersizer 2000 particle size analyzer instrument as described above.

[2] = Specific surface area (SSA), nitrogen gas, Quantachrome Quadrasorb SI; assay type: physicochemical; conditions: degassed 2 hours at 40° C. under vacuum
Method: Specific surface area (SSA) was measured using a Quantachrome Quadrasorb SI surface area analyzer performed at six-points over the relative pressure range of 0.1000 to 0.3500 in 0.0500 increments. Approximately 1.3 to 4.6 grams of sample were used per analysis and were weighed into bulb tubes. Samples in bulb tubes were degassed 2 hours at 40° C. under vacuum using the Quantachrome FlowVac degasser prior to surface area analysis. Nitrogen gas was used as the gas for the surface area analyses.

[3] = Dynamic vapor sorption (DVS) water sorption isotherm; assay type: physicochemical; conditions: 25° C.; for hygroscopicity: DVS
Source text: In various embodiments, the hygroscopicity of a compound is characterized by dynamic vapor sorption (DVS). DVS is a gravimetric technique that measures how much of a solvent is absorbed by a sample by varying the vapor concentration surrounding the sample (e.g., relative humidity) and measuring the change in mass. DVS was used herein to generate water sorption isotherms, which represent the equilibrium amount of water vapor adsorbed and/or absorbed as a function of steady state relative water vapor pressure at a constant temperature.
Dynamic vapor sorption (DVS) isotherms were generated using a VTI SGA-100 Symmetric Vapor Sorption Analyzer. Analysis included pre-analysis drying at 25° C. with equilibrium criteria of 0.0000 wt % change in 5 minutes or a maximum of 180 minutes. Equilibrium criteria were the lesser of 0.01 wt % change in 5 minutes or 180 minutes at each RH step. […] Analysis was repeated for each sample in consecutive analyses (i.e., the sample was not removed from analyzer between analyses).
Tables 9A and 9B presents the DVS water sorption for crystalline enantiomeric amisulpride of Form A and Form A′ shown in FIG. 7A.

[4] = Particle size distribution by laser diffraction (Malvern Mastersizer 3000), Example 9; assay type: physicochemical; conditions: pre-sieved through 30 mesh screen, 0.2% Span 85 in hexanes
Method: Prior to analysis, the Form A′ crystals of (S)-amisulpride and Form A crystals of (R)-amisulpride were separately pre-sieved through a 30 mesh screen. All material was passed through screen during this pre-sieving step including aggregates.
Particle size distribution (PSD) measurements were measured by laser diffraction using a Malvern Instruments Mastersizer 3000 particle size analyzer instrument operated with the instrumentation and parameters described in Table 7.
The samples were first sieved through a 30 mesh screen prior to suspension. Approximately 400 mg of the sieved sample was weighed into a 50 ml beaker and 40 ml of a 0.2% v/v Span 85 (Sorbitan trioleate) in hexanes dispersant solution (e.g., a dispersant solution prepared by dissolving 2 mL of Span 85 (Sorbitan trioleate) in 1 L of hexanes) added. The overhead stirrer impeller was placed slightly above the bottom of the beaker (about 1 to 1.5 cm) and stirred at 500 rpm. After 1 minute, a disposable graduated transfer pipette was used to remove about 3 mL of the sample suspension from the center position of the beaker between impeller shaft and beaker side, and midway between top of vortex and beaker bottom. The entire contents of the pipette were added to the Malvern sample cell without inverting the pipette and the pipette rinsed twice with the circulating dispersant from the sample cell. The obscuration should be between 7% and 15%, if the obscuration was less than 7%, another aliquot of sample was added, making sure to transfer the entire aliquot taken up in the transfer pipette to the instrument, in order to avoid, e.g., potential artifacts due to settling of the suspension within the pipette. If the obscuration was greater than 15%, the instrument was drained and rinsed, and the measurement performed using a smaller sample suspension aliquot. After a sample cell with acceptable obscuration was obtained, the sample was circulated in the Mastersizer Hydro MV circulation system for two minutes and the sample dispersion measured.

[5] = DVS, 25° C., 0 to 95% relative humidity; '738 patent; cited from earlier work
[6] = listed as Form A′ (averages of lots prepared by the methods of Example 4)

Structure (SMILES): CCN1CCC[C@H]1CNC(=O)c1cc(S(=O)(=O)CC)c(N)cc1OC [Form A′ small PSD]
D10 (μm) [1]: 5.1 μm
D50 (μm) [1]: 18.3 μm
D90 (μm) [1]: 80.1 μm

Structure (SMILES): CCN1CCC[C@H]1CNC(=O)c1cc(S(=O)(=O)CC)c(N)cc1OC [Form A′ prepared by Example 14, (S)-4-Amino-N-[(1-ethyl-2-pyrrolidinyl)methyl]-5-(ethylsulfonyl)-2-methoxybenzamide]
PSD D10 (μm) [1]: 7.0 μm
PSD D50 (μm) [1]: 25.5 μm
PSD D90 (μm) [1]: 83.9 μm

Structure (SMILES): CCN1CCC[C@@H]1CNC(=O)c1cc(S(=O)(=O)CC)c(N)cc1OC [(R)-amisulpride Form A, (R)-4-Amino-N-[(1-ethyl-2-pyrrolidinyl)methyl]-5-(ethylsulfonyl)-2-methoxybenzamide]
SSA (m^2/g) [2]: 0.51 m^2/g
DVS Ads. at 95% RH [3]: 0.14
Change Mass (wt %) ([3]; Relative Humidity 1.39 %, elapse time 155.38 min): 0.000 wt %
Change Mass (wt %) ([3]; Relative Humidity 4.79 %, elapse time 327.39 min): −0.003 wt %
Change Mass (wt %) ([3]; Relative Humidity 10.00 %, elapse time 340.39 min): 0.003 wt %
Change Mass (wt %) ([3]; Relative Humidity 14.96 %, elapse time 359.89 min): 0.009 wt %
Change Mass (wt %) ([3]; Relative Humidity 19.81 %, elapse time 366.91 min): 0.015 wt %
Change Mass (wt %) ([3]; Relative Humidity 24.91 %, elapse time 374.93 min): 0.020 wt %
Change Mass (wt %) ([3]; Relative Humidity 30.02 %, elapse time 382.94 min): 0.026 wt %
Change Mass (wt %) ([3]; Relative Humidity 34.96 %, elapse time 390.96 min): 0.031 wt %
Change Mass (wt %) ([3]; Relative Humidity 39.94 %, elapse time 398.96 min): 0.038 wt %
Change Mass (wt %) ([3]; Relative Humidity 44.99 %, elapse time 406.96 min): 0.043 wt %
Change Mass (wt %) ([3]; Relative Humidity 49.99 %, elapse time 415.98 min): 0.049 wt %
Change Mass (wt %) ([3]; Relative Humidity 54.96 %, elapse time 424.99 min): 0.055 wt %
Change Mass (wt %) ([3]; Relative Humidity 59.96 %, elapse time 434.01 min): 0.061 wt %
Change Mass (wt %) ([3]; Relative Humidity 64.91 %, elapse time 443.03 min): 0.067 wt %
Change Mass (wt %) ([3]; Relative Humidity 69.86 %, elapse time 452.04 min): 0.073 wt %
Change Mass (wt %) ([3]; Relative Humidity 74.86 %, elapse time 461.04 min): 0.080 wt %
Change Mass (wt %) ([3]; Relative Humidity 79.80 %, elapse time 470.04 min): 0.087 wt %
Change Mass (wt %) ([3]; Relative Humidity 84.74 %, elapse time 479.04 min): 0.101 wt %
Change Mass (wt %) ([3]; Relative Humidity 89.58 %, elapse time 488.06 min): 0.113 wt %
Change Mass (wt %) ([3]; Relative Humidity 94.72 %, elapse time 497.06 min): 0.135 wt %
hygroscopicity [3]: substantially non-hygroscopic
Average PSD D10 (μm) [4]: 14.3 μm
Average PSD D50 (μm) [4]: 47.7 μm
Average PSD D90 (μm) [4]: 133.9 μm
hygroscopicity [5]: substantially non-hygroscopic

Now from value to compound, other results behind:

SSA (m^2/g) [2]: 0.65 m^2/g
DVS Ads. at 95% RH [3]: 0.09
Change Mass (wt %) ([3]; Relative Humidity 1.41 %, elapse time 180.73 min): 0.000 wt %
Change Mass (wt %) ([3]; Relative Humidity 5.38 %, elapse time 195.14 min): 0.003 wt %
Change Mass (wt %) ([3]; Relative Humidity 10.12 %, elapse time 207.64 min): 0.006 wt %
Change Mass (wt %) ([3]; Relative Humidity 15.00 %, elapse time 219.64 min): 0.011 wt %
Change Mass (wt %) ([3]; Relative Humidity 19.73 %, elapse time 227.64 min): 0.017 wt %
Change Mass (wt %) ([3]; Relative Humidity 24.91 %, elapse time 235.64 min): 0.023 wt %
Change Mass (wt %) ([3]; Relative Humidity 29.95 %, elapse time 243.64 min): 0.029 wt %
Change Mass (wt %) ([3]; Relative Humidity 34.98 %, elapse time 251.64 min): 0.033 wt %
Change Mass (wt %) ([3]; Relative Humidity 40.01 %, elapse time 260.64 min): 0.038 wt %
Change Mass (wt %) ([3]; Relative Humidity 44.94 %, elapse time 269.64 min): 0.042 wt %
Change Mass (wt %) ([3]; Relative Humidity 50.00 %, elapse time 278.64 min): 0.049 wt %
Change Mass (wt %) ([3]; Relative Humidity 55.02 %, elapse time 287.66 min): 0.053 wt %
Change Mass (wt %) ([3]; Relative Humidity 59.89 %, elapse time 296.66 min): 0.059 wt %
Change Mass (wt %) ([3]; Relative Humidity 64.92 %, elapse time 305.66 min): 0.066 wt %
Change Mass (wt %) ([3]; Relative Humidity 69.86 %, elapse time 314.66 min): 0.072 wt %
Change Mass (wt %) ([3]; Relative Humidity 74.97 %, elapse time 323.66 min): 0.076 wt %
Change Mass (wt %) ([3]; Relative Humidity 79.71 %, elapse time 332.66 min): 0.084 wt %
Change Mass (wt %) ([3]; Relative Humidity 84.74 %, elapse time 341.66 min): 0.094 wt %
Change Mass (wt %) ([3]; Relative Humidity 89.75 %, elapse time 350.66 min): 0.103 wt %
Change Mass (wt %) ([3]; Relative Humidity 94.55 %, elapse time 359.68 min): 0.114 wt %
hygroscopicity [3]: substantially non-hygroscopic
PSD D10 (μm) [1, 6]: 6.0 μm
PSD D50 (μm) [1, 6]: 29.1 μm
PSD D90 (μm) [1, 6]: 99.4 μm
Average PSD D10 (μm) [4]: 9.5 μm
Average PSD D50 (μm) [4]: 32.3 μm
Average PSD D90 (μm) [4]: 116.9 μm
Structure (SMILES): CCN1CCC[C@H]1CNC(=O)c1cc(S(=O)(=O)CC)c(N)cc1OC [(S)-amisulpride Form A′, (S)-4-Amino-N-[(1-ethyl-2-pyrrolidinyl)methyl]-5-(ethylsulfonyl)-2-methoxybenzamide]
hygroscopicity [5]: substantially non-hygroscopic

D10 (μm) [1]: 12.8 μm
D50 (μm) [1]: 94.9 μm
D90 (μm) [1]: 441.4 μm
Structure (SMILES): CCN1CCC[C@@H]1CNC(=O)c1cc(S(=O)(=O)CC)c(N)cc1OC [Form A large PSD]

D10 (μm) [1]: 4.7 μm
D50 (μm) [1]: 18.2 μm
D90 (μm) [1]: 90.4 μm
Structure (SMILES): CCN1CCC[C@@H]1CNC(=O)c1cc(S(=O)(=O)CC)c(N)cc1OC [Form A small PSD]

D10 (μm) [1]: 31.6 μm
D50 (μm) [1]: 93.1 μm
D90 (μm) [1]: 425.4 μm
Structure (SMILES): CCN1CCC[C@H]1CNC(=O)c1cc(S(=O)(=O)CC)c(N)cc1OC [Form A′ large PSD]
